Results published in paper PMC10517462, “Small molecule targeting of the p38/Mk2 stress signaling pathways to improve cancer treatment” (BMC Cancer, 2023).

Test: Pharmacokinetics of MK2.III in CD-1 mice (HPLC-MS/MS)
Format: in vivo, CD-1 mouse
Protocol: We investigated the pharmacokinetics (PK) and bioavailability of small molecules (MK2.III) with intraperitoneal and intravenous injection before studying its tumor suppressor properties in combination with DNA-damaging agents. For this set of experiments CD-1 mouse line (male,7 weeks, body weight of 23–25 g, n = 198, Charles River) was used with a one-time intraperitoneal injection (IP) of 2, 10, and 50 mg/kg doses of the MK2.III or 2 mg/kg intravenous injection (IV) of the same drug. The small molecule was prepared using PBS containing 10% DMSO. MK2.III was isolated from mouse serum using protein settling method with acetonitrile and drug concentrations were detected using HPLC – MS/MS.
Blood samples were obtained from the retro-orbital sinus (at […] for IV groups; at […] for IP groups, respectively) in polypropylene tubes containing 20 μl of 5% EDTA. Blood plasma was separated by centrifugation at 1500 g for 10 min and was stored at -80 °C until analysis. Data were obtained from six animals per time.
An Agilent 1260 Infinity system, a hybrid triple-quadrupole mass spectrometer, and QTRAP 5500 electrospray ionization were used for determining the MK2.III concentration in blood plasma. Separations were achieved using a YMC Triart C18 50 × 2,1 mm, 1,9 μm column. The mobile phase consisted of A (0.1% aqueous formic acid) and B (0.1% formic acid in acetonitrile). The gradient elution t = 0, A:B 95:5; t = 2 min A:B 5:95; t = 2.1 A:B 5:95; t = 2.2 A:B 95:5; t = 2.8 A:B 95:5; flow rate was 0.5 mL min − 1; Retention time—2.8 min. The injection volume was 2 μL. The temperature of the column was set at 40 °C. Tolbutamide was selected as an internal standard. Thawed plasma (45 μL) was transferred to a microtube (1.1 mL volume), treated with a standard solution (5 μL) of the analytes in acetonitrile: water (1:1), stirred on a vortex mixer for 10 s, treated with tolbutamide solution (200 ng/ml), stirred again on the vortex mixer for 10 s, and then proteins were precipitated in the cold at + 4 °C for 15 min, centrifuged for 10 min at 1500 g. The supernatant (150 µl) was transferred to a clean 96-well plate for HPLC–MS/MS analysis. Samples were stored at a temperature not exceeding -70 °C until analysis. The calculation of pharmacokinetic parameters was performed by using Phoenix® WinNonlin® software, version 6.3 (Pharsight Corp., Cary, NC, USA).

[1] = 2 mg/kg intraperitoneal, mice serum
[2] = 10 mg/kg intraperitoneal, mice serum
[3] = 50 mg/kg intraperitoneal, mice serum

SMILES: O=C1NCCc2[nH]c(-c3ccnc(-c4cnc5ccccc5c4)c3)cc21 [MK2.III]
- AUClast [1]: 1,99 hr*ng/ml
- Cmax [1]: 2,15 ng/ml
- MRTlast [1]: 1,28 hr
- Tmax [1]: 2 h
- Highest concentration of the drug in serum (2 mg/kg intravenous, at the time of the injection): 11 ng/mL
- Serum concentration (2 mg/kg intravenous, one-hour interval): 2.15 ng/mL
- AUCinf [2]: 203 ng·h/mL
- AUClast [2]: 130 ng·h/mL
- Cl/F [2]: 821 mL/min/kg
- Cmax [2]: 38,3 ng/ml
- Kel [2]: 0,05 1/hr
- MRTinf [2]: 21,7 hr
- MRTlast [2]: 8,59 hr
- T1/2 [2]: 14,4 hr
- Tmax [2]: 0,5 hr
- Vz/F [2]: 1027 L/kg
- AUCinf [3]: 548 ng·h/mL
- AUClast [3]: 227 ng·h/mL
- Cl/F [3]: 1520 mL/min/kg
- Cmax [3]: 42,4 ng/ml
- Kel [3]: 0,02 1/hr
- MRTinf [3]: 42,3 hr
- MRTlast [3]: 10,3 hr
- T1/2 [3]: 28,3 hr
- Tmax [3]: 0,5 hr
- Vz/F [3]: 3718 L/kg
- Cmax (higher doses (10 and 50 mg/kg) intraperitoneal, within 30 min after injection): around 40 ng/ml
- Linearity of pharmacokinetics (range of 2-50 mg/kg dose, intraperitoneal): does not represent linearity
